Measurements reported in ChEMBL document CHEMBL4308860, “Nature-inspired development of unnatural meroterpenoids as the non-toxic anti-colon cancer agents” (Eur J Med Chem, 2018).
Active and inactive are the calls of the source. The rule behind the calls is not given here.

What was measured:
[1] = system: HT-29; test: Antiproliferative activity against human HT-29 cells assessed as inhibition of cell proliferation at 25 uM after 72 hrs by MTT assay; format: functional; settings: HT-29, 72 h
[2] = system: HT-29; test: Cell cycle arrest in human HT-29 cells assessed as accumulation at G2/M phase up to 10 uM after 48 hrs by propidium iodide/RNase staining based flow cytometric analysis; format: functional
[3] = system: HT-29; test: Cytotoxicity against human HT-29 cells assessed as cell death at 50 uM after 72 hrs by Propidium iodide staining-based flow cytometric analysis relative to control; format: functional
[4] = system: HT-29; test: Antiproliferative activity against human HT-29 cells assessed as inhibition of cell proliferation after 72 hrs by MTT assay; format: functional, cell-based; settings: for IC50: HT-29, 72 h
[5] = system: HT-29; test: Cytotoxicity against human HT-29 cells assessed as increase in cell death after 72 hrs by Propidium iodide staining-based flow cytometric analysis; format: functional
[6] = system: L132; test: Antiproliferative activity against human L-132 cells up to 25 uM after 72 hrs by MTT assay; format: cell-based; settings: l132, 72 h
[7] = system: HT-29; test: Down regulation of COX-2 level in human HT-29 cells up to 25 uM after 48 hrs by Western blot analysis; format: functional, cell-based
[8] = system: HT-29; test: Down regulation of survivin level in human HT-29 cells up to 25 uM after 48 hrs by Western blot analysis; format: functional, cell-based
[9] = system: HT-29; test: Cell cycle arrest in human HT-29 cells assessed as accumulation at S phase up to 10 uM after 48 hrs by propidium iodide/RNase staining based flow cytometric analysis; format: functional
[10] = system: HT-29; test: Cell cycle arrest in human HT-29 cells assessed as accumulation at S phase up to 5 uM after 48 hrs by propidium iodide/RNase staining based flow cytometric analysis; format: functional
[11] = system: HT-29; test: Cell cycle arrest in human HT-29 cells assessed as accumulation at G2/M phase up to 15 uM after 48 hrs by propidium iodide/RNase staining based flow cytometric analysis; format: functional
[12] = system: HT-29; test: Induction of apoptosis in human HT-29 cells assessed as increase in apoptotic body formation up to 25 uM after 72 hrs by calcein-AM/ethidium homodimer-1 staining-based fluorescence microscopic analysis; format: functional, cell-based
[13] = system: HT-29; test: Cell cycle arrest in human HT-29 cells assessed as accumulation at G0/G1 phase up to 5 uM after 48 hrs by propidium iodide/RNase staining based flow cytometric analysis; format: functional
[14] = system: HT-29; test: Cell cycle arrest in human HT-29 cells assessed as accumulation at S phase up to 7 uM after 48 hrs by propidium iodide/RNase staining based flow cytometric analysis; format: functional

SMILES: COc1ccc(CC2(O)CCC[C@@H]3CCCC[C@@H]32)cc1 (some centres undefined)
- inhibition at 25 µM [1]: 0.56%

SMILES: CC1(C)CC[C@@H]2c3ccc(O)cc3C[C@]3(C)CCC[C@@H]1[C@H]23
- Activity [2]: Active
- Activity [3]: >50%
- Activity [4]: Dose-dependent effect
- IC50 [4]: 20.5 µM
- Activity [5]: Dose-dependent effect
- Activity [6]: Non-Toxic
- inhibition at 25 µM [1]: 112%

SMILES: CC(C)(C)c1ccc2c(c1)[C@H]1CCC(C)(C)[C@@H]3CCC[C@@](C)(C2)[C@@H]13
- inhibition at 25 µM [1]: -1.89%

SMILES: CC1(C)CC[C@@H]2C3=C(C[C@]4(C)CCC[C@@H]1[C@H]24)C(=O)C=CC3=O
- Activity [3]: >50%
- Activity [7]: Active
- Activity [8]: Active
- Activity [9]: Active
- Activity [4]: Dose-dependent effect
- IC50 [4]: 14.5 µM
- Activity [5]: Dose-dependent effect
- Activity [6]: Non-Toxic
- inhibition at 25 µM [1]: 124%

SMILES: O=c1[nH]cc(F)c(=O)[nH]1 [FLUOROURACIL]
- Activity [4]: Dose-dependent effect
- IC50 [4]: 6.5 µM
- Activity [5]: inactive
- Activity [6]: Non-Toxic
- Activity [10]: Active

SMILES: CC1(C)CC[C@@H]2c3ccccc3C[C@]3(C)CCC[C@@H]1[C@H]23
- inhibition at 25 µM [1]: 22.4%

SMILES: C[C@@H]1CC[C@H]2C(C)(C)[C@@H](O)CC[C@]2(C)C1(O)Cc1ccccc1O (some centres undefined)
- inhibition at 25 µM [1]: -1.89%

SMILES: CC1(C)CC[C@@H]2c3cc(O)ccc3C[C@@]3(C)[C@@H]2[C@H]1CCC3(C)C
- Activity [3]: >50%
- Activity [7]: Active
- Activity [8]: Active
- Activity [4]: Dose-dependent effect
- IC50 [4]: 15 µM
- Activity [5]: Dose-dependent effect
- Activity [6]: Non-Toxic
- Activity [11]: Active
- inhibition at 25 µM [1]: 97.5%
- Activity [12]: Active

SMILES: CC1(C)CC[C@@H]2c3ccc(O)c(O)c3C[C@]3(C)CCC[C@@H]1[C@H]23
- Activity [7]: Active
- Activity [8]: Active
- Activity [9]: Active
- Activity [4]: Dose-dependent effect
- IC50 [4]: 16.5 µM
- Activity [5]: Dose-dependent effect
- Activity [6]: Non-Toxic
- inhibition at 25 µM [1]: 118%

SMILES: COc1ccc(C[C@]2(O)CCC[C@H]3C(C)(C)[C@@H](O)CC[C@@]32C)cc1
- inhibition at 25 µM [1]: -3.48%

SMILES: CC1(C)CC[C@@H]2c3cccc(O)c3C[C@]3(C)CCC[C@@H]1[C@H]23
- inhibition at 25 µM [1]: 39.1%

SMILES: Cc1ccc(C[C@]2(O)CCC[C@H]3C(C)(C)CCC[C@@]32C)cc1
- inhibition at 25 µM [1]: 13%

SMILES: CC1(C)CC[C@@H]2c3cc(O)ccc3C[C@]3(C)CCC[C@@H]1[C@H]23
- Activity [3]: >50%
- Activity [7]: Active
- Activity [8]: Active
- Activity [9]: Active
- Activity [4]: Dose-dependent effect
- IC50 [4]: 16 µM
- Activity [5]: Dose-dependent effect
- Activity [6]: Non-Toxic
- inhibition at 25 µM [1]: 114%

SMILES: C[C@@H]1CC[C@@H]2C3=C(C[C@]4(C)CCC[C@@H]1[C@H]24)C(=O)C=CC3=O
- Activity [3]: >50%
- Activity [7]: Active
- Activity [8]: Active
- Activity [4]: Dose-dependent effect
- IC50 [4]: 8 µM
- Activity [5]: Dose-dependent effect
- Activity [6]: Non-Toxic
- Activity [13]: Active
- inhibition at 25 µM [1]: 71.8%
- Activity [12]: Active

SMILES: CC1(C)CC[C@@H]2c3cc(O)c(O)cc3C[C@]3(C)CCC[C@@H]1[C@H]23
- Activity [7]: Active
- Activity [8]: Active
- Activity [14]: Active
- Activity [4]: Dose-dependent effect
- IC50 [4]: 7.5 µM
- Activity [5]: Dose-dependent effect
- Activity [6]: Non-Toxic
- inhibition at 25 µM [1]: 142%
- Activity [12]: Active
